Measurements: paper PMC8032764 (Scientific Reports, 2021)

Tests used:
Muscarinic M3 = test system: T1, Muscarinic M3; test: Cerep binding; design: species or system human; settings: 10 μM; [3H]4-DAMP; hum. recomb. (CHO)
T1 construct: host or cells: CHO

Serotonin 5-HT2C = test system: T2, Serotonin 5-HT2C; test: Cerep binding; design: species or system human; settings: 10 μM; [3H]mesulergine; hum. recomb. (CHO)
T2 construct: purchased Eurofins Cerep

Sigma (non-selective) = test: Cerep binding; settings: 10 μM; [3H]DTG; rat cerebral cortex
Nociceptin (ORL1) = test system: T3, Nociceptin (ORL1); test: Cerep binding; design: species or system human; settings: 10 μM; [3H]nociceptin; hum. recomb. (HEK-293)
T3 construct: host or cells: HEK-293

Cannabinoid CB1 = test system: T4, Cannabinoid CB1; test: Cerep binding; design: species or system human; settings: 10 μM; [3H]CP 55940; hum. recomb. (CHO)
T4 construct: host or cells: CHO

Plasma levels, PTZ test = format: in vivo, rat
Experimental: Following tonic convulsions, rats were immediately euthanized by decapitation. All other rats were euthanized by decapitation at the end of the 30 min observation period. Plasma samples were collected and frozen at − 80 °C for analysis of drug content.
The calibration range was from 1.0 to 5000 ng/mL. After protein precipitation with ethanol, the sample solution was injected onto a Gemini C18 trapping column (2 × 10 mm; Phenomenex, Torrance, CA, USA) and polar endogenous compounds and salts were rinsed off. Analytical separation was performed on an Atlantis T3 column (2.1 × 50 mm) (Waters, Milford, MA, USA), using methanol/water containing 0.1% formic acid as mobile phase. A drug analogue was used as an internal standard.

Dopamine D5 = test system: T5, Dopamine D5; test: Cerep binding; design: species or system human; settings: 10 μM; [3H]SCH 23390; hum. recomb. (GH4)
T5 construct: host or cells: GH4

[1] = Pharmacokinetics, single intravenous dosing; format: in vivo; settings: C57/Bl6, mouse, plasma, 2.0 mg/kg i.v., 2 male
Melatonin MT1 (ML1A) = test system: T6, Melatonin MT1 (ML1A); test: Cerep binding; design: species or system human; settings: 10 μM; [125I]2-iodomelatonin; hum. recomb. (CHO)
T6 construct: host or cells: CHO

Histamine H1 = test system: T7, Histamine H1; test: Cerep binding; design: species or system human; settings: 10 μM; [3H]pyrilamine; hum. recomb. (HEK-293)
T7 construct: host or cells: HEK-293

Neuropeptide Y2 = test system: T8, Neuropeptide Y2; test: Cerep binding; design: species or system human; settings: 10 μM; [125I]peptide YY; hum., KAN-TS cells
T8 construct: purchased Eurofins Cerep

[2] = test system: Platelet derived growth factor (PDGF); test: Cerep binding; settings: 10 μM; [125I]PDGF BB; mouse, Balb/c 3T3 cells
Dopamine transporter = test system: T9, Dopamine transporter; test: Cerep binding; design: species or system human; settings: 10 μM; [3H]BTCP; hum. recomb. (CHO)
T9 construct: host or cells: CHO

rats = test: GLP toxicology and safety pharmacology, daily oral administration; format: in vivo, rat; settings: supra-therapeutic plasma exposures, up to 26 weeks
Bradykinin B2 = test system: T10, Bradykinin B2; test: Cerep binding; design: species or system human; settings: 10 μM; [3H]bradykinin; hum. recomb. (CHO)
T10 construct: purchased Eurofins Cerep

healthy male subjects = test: Study WP25366 multiple-ascending dose, safety EEG and plasma exposure; format: in vivo, human
Experimental: 2) Study WP25366 Multiple-Ascending Dose (MAD) in Healthy Volunteers
Of the 32 healthy male subjects who were randomized to treatment, 24 subjects were […]
participants had several EEGs and several participants had sleep assessments with EEG that were also evaluated:
• Cohort 1: 80 mg (n dosed: 6)
• Cohort 2: 160 mg (n dosed: 6)
• Cohort 3: 370 mg (n dosed: 6)
• Cohort 4: 1000 mg (n dosed: 6)
EEG monitoring was implemented in this study starting at about 1 hour prior to dosing and then up to approximately 7 hours after dosing, on selected days during the dosing period. All sleep recordings were performed for approximately 8 h from 23.00 to 07.00. The objective of such monitoring was detection if any, of specific EEG patterns such as spikes, sharp waves, and spike-and-wave discharges that would be indicative of epileptiform changes or non - […]
The day and night EEG recordings were subject to expert safety review, with the objective of identifying any pro-convulsive signals. Following this safety review, EEG results were recorded either as normal, normal variant or abnormal variant. […]
of epileptogenic effects (e.g., generalized spike-wave discharges) in any subject in any dose group at any time points during the study. The review of the day and night EEG recordings […]
160 mg BID, 370 mg BID and 1000 mg BID, was safe and ha d no impact on brain electrical activity. Maximum plasma concentrations at Day 13 were 2120, 4110, 6040, and […]
(§1) 3) Study WP29402 Drug-Drug Interaction (DDI) Itraconazole in Healthy Volunteers This was an open-label, three treatment, fixed sequence crossover study to investigate the […]
(§2) healthy male and female volunteers (age range 18-60 years; n: 12). As systemic basmisanil exposure was predicted to be higher than exposures achiev ed in previous clinical studies, regular EEG examinations were included and reviewed by a neurologist. Multiple oral doses […]
(§3) with the CYP3A inhibitor, itraconazole (200 m g OD).
(§4) Baseline EEG assessments were performed prior to the study (resting EEG eyes open/closed, intermittent photic stimulation, hyperventilation). On treatment days (1, 3, 5, 8) […]
(§5) hours and resting EEG eyes open/closed w ere performed. […]
(§6) administered with itraconazole.

Chemokine CXCR2 (IL-8B) = test system: T11, Chemokine CXCR2 (IL-8B); test: Cerep binding; design: species or system human; settings: 10 μM; [125I]IL-8; hum. recomb. (HEK-293)
T11 construct: purchased Eurofins Cerep

Muscarinic M4 = test system: T12, Muscarinic M4; test: Cerep binding; design: species or system human; settings: 10 μM; [3H]4-DAMP; hum. recomb. (CHO)
T12 construct: host or cells: CHO

[3] = test system: healthy male and female volunteers; test: Study WP29402 drug-drug interaction with itraconazole; format: in vivo, human
From the text: as §1, §2, §3, §4, §5, §6

Muscarinic M2 = test system: T13, Muscarinic M2; test: Cerep binding; design: species or system human; settings: 10 μM; [3H]AF-DX 384; hum. recomb. (CHO)
T13 construct: host or cells: CHO

male F-344 rats = test: Social approach avoidance test
Experimental: Experiments on social approach avoidance were performed as described previously by[41] and[14]. A tracking system (Ethovision, Noldus, The Netherlands) was used to analyse each rat’s pathway.

[4] = 240 mg BID with itraconazole 200 mg OD versus alone

SMILES: Cc1onc(-c2ccc(F)cc2)c1COc1ccc(C(=O)N2CCS(=O)(=O)CC2)cn1 [basmisanil]
- % Inhibition (Muscarinic M3): 4%
- % Inhibition (Serotonin 5-HT2C): 10%
- % Inhibition (Sigma (non-selective)): 58%
- % Inhibition (Nociceptin (ORL1)): -4%
- % Inhibition (Cannabinoid CB1): 16%
- free plasma concentration (Plasma levels, PTZ test; female rats, 30 mg/kg): 2452 nM
- free plasma concentration (Plasma levels, PTZ test; female rats, 100 mg/kg): 5079 nM
- free plasma concentration (Plasma levels, PTZ test; male rats, 100 mg/kg): 1622 nM
- % Inhibition (Dopamine D5): -11%
- half-life [1]: 30 min
- clearance ([1]; read-out: Total CL): 37 mL/min/kg
- Vd ([1]; read-out: Vss): 1.3 L/kg
- % Inhibition (Melatonin MT1 (ML1A)): 14%
- % Inhibition (Histamine H1): 10%
- % Inhibition (Neuropeptide Y2): 7%
- % Inhibition [2]: -17%
- % Inhibition (Dopamine transporter): 19%
- convulsions and EEG alterations (rats): no convulsions and no EEG alterations
- % Inhibition (Bradykinin B2): 14%
- Maximum plasma concentration at Day 13 (healthy male subjects; 80 mg BID): 2120 ng/mL
- Maximum plasma concentration at Day 13 (healthy male subjects; 160 mg BID): 4110 ng/mL
- Maximum plasma concentration at Day 13 (healthy male subjects; 370 mg BID): 6040 ng/mL
- Maximum plasma concentration at Day 13 (healthy male subjects; 1000 mg BID): 8520 ng/mL
- EEG assessments (healthy male subjects; 80, 160, 370 and 1000 mg BID): revealed no findings of clinical concern
- % Inhibition (Chemokine CXCR2 (IL-8B)): -3%
- % Inhibition (Muscarinic M4): -4%
- maximum plasma concentration ([3]; 240 mg BID alone): 3510 ng/mL
- maximum plasma concentration ([3]; 240 mg BID co-administered with itraconazole 200 mg OD): 14500 ng/mL
- increase in maximum plasma concentration [3, 4]: 312%
- increase in systemic exposure at steady state [3, 4]: 374%
- maximum plasma concentration ([3]; DDI study, n = 12): approximately 14,500 ng/mL
- EEG findings ([3]; co-administered with itraconazole): no epileptiform discharges
- % Inhibition (Muscarinic M2): 13%
- time spent in the social compartment (male F-344 rats; 3–100 mg/kg p.o., 1 h prior to testing): did not significantly reduce the time spent in the social compartment
- anxiogenic-like effect (time in social compartment and in hidden area) (male F-344 rats; up to 100 mg/kg p.o.): did not have an anxiogenic-like effect
